Here are results for 25 compounds from patent US11970498B2, “CDK2 inhibitors” (BLUEPRINT MEDICINES CORPORATION, priority 2021, dated 2024).

One experiment concerns the target CDK2/Cyclin E (Homo sapiens, UniProt P24941). The experiment can be described thus: CDK2/Cyclin E biochemical phosphorylation assay (Caliper mobility shift). As to conditions: apparent IC50; 1.0 mM ATP or ATP Km; 1.25 nM enzyme; 25° C.; read-out: CDK2/cyclin E1 IC50. In a few lines:
(§1)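 7.5 µM 5-FAM-QSPKKG-CONH2 peptide phosphorylated by CDK2/Cyclin E (1.25 nM) or GST-CDK1/Cyclin B1 (1.5 nM) at 1.0 mM ATP or ATP Km, in HEPES pH 7.5, MgCl2, Brij-35, DTT, 1% DMSO, 25 °C to 10–20% conversion. EDTA stop; Caliper mobility-shift readout; apparent IC50 from percent activity vs log concentration.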

Another experiment addresses T1, CDK1/Cyclin B1, GST-tag (Homo sapiens, UniProt P06493).
T1 construct: GST
The experiment is described as follows: CDK1/Cyclin B1 biochemical phosphorylation assay (Caliper mobility shift). As to conditions: apparent IC50; 1.0 mM ATP or ATP Km; 1.5 nM enzyme; 25° C. In outline: as §1

T1 sequence (P06493 whole entry): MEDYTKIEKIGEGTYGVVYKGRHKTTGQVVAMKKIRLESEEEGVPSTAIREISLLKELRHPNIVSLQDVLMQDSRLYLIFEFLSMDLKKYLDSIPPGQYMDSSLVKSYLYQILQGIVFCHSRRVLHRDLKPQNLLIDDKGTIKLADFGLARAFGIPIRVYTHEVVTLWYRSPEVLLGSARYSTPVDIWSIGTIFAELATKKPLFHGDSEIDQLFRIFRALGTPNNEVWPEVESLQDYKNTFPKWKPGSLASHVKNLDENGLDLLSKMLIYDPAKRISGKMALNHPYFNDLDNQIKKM
T1 sequence (P14635 whole entry partner): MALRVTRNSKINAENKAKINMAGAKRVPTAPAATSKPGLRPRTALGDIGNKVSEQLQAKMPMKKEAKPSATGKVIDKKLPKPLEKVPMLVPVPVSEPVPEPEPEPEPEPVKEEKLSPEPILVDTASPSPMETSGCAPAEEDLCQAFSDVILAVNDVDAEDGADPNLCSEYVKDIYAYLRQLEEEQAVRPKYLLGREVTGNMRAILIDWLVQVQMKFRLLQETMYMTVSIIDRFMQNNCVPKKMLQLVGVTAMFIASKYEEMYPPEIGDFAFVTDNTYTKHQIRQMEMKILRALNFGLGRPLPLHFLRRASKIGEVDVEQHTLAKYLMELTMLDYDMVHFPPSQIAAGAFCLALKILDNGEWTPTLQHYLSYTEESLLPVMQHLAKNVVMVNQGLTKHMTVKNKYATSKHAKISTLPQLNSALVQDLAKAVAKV

For `C[C@@H](c1cccnc1Cl)n1ncc2ncc(Nc3cc(OC(F)F)[nH]n3)nc21` [Example 60, (S)-1-(1-(2-chloropyridin-3-yl)ethyl)-N-(5-(difluoromethoxy)-1H-pyrazol-3-yl)-1H-pyrazolo[3,4-b]pyrazin-6-amine], the IC50 was no more than 10 nM at CDK2/Cyclin E and no less than 500 nM at CDK1/Cyclin B1, GST-tag.

Regarding `C[C@H](c1cccc(F)n1)n1ncc2ncc(Nc3cc(OC(F)F)[nH]n3)nc21` (single isomer, unassigned) [Example 155, (R)-N-(5-(difluoromethoxy)-1H-pyrazol-3-yl)-1-(1-(6-fluoropyridin-2-yl)ethyl)-1H-pyrazolo[3,4-b]pyrazin-6-amine or (S)-N-(5-(difluoromethoxy)-1H-pyrazol-3-yl)-1-(1-(6-fluoropyridin-2-yl)ethyl)-1H-pyrazolo[3,4-b]pyrazin-6-amine], the IC50 is 30 to 100 nM at CDK2/Cyclin E and no less than 500 nM on CDK1/Cyclin B1, GST-tag.

With `FC(F)Oc1cc(Nc2cnc3cnn(CC4CCC(F)(F)CC4)c3n2)n[nH]1` [Example 108, 1-((4,4-difluorocyclohexyl)methyl)-N-(5-(difluoromethoxy)-1H-pyrazol-3-yl)-1H-pyrazolo[3,4-b]pyrazin-6-amine], the IC50 on CDK2/Cyclin E is no more than 10 nM; on CDK1/Cyclin B1, GST-tag, no less than 500 nM.

Regarding `FC(F)Oc1cc(Nc2cnc3cnn(CC45COCC4C5)c3n2)n[nH]1` (centres unmarked) [Example 221, 1-(3-oxabicyclo[3.1.0]hexan-1-ylmethyl)-N-(5-(difluoromethoxy)-1H-pyrazol-3-yl)-1H-pyrazolo[3,4-b]pyrazin-6-amine], the IC50 on CDK2/Cyclin E was 30 to 100 nM; on CDK1/Cyclin B1, GST-tag it was no less than 500 nM.

For `N#CC1(Cn2ncc3ncc(Nc4cc(OC(F)F)[nH]n4)nc32)CCOCC1` [Example 115, 4-((6-((5-(difluoromethoxy)-1H-pyrazol-3-yl)amino)-1H-pyrazolo[3,4-b]pyrazin-1-yl)methyl)tetrahydro-2H-pyran-4-carbonitrile], the IC50 on CDK2/Cyclin E is 30 to 100 nM; on CDK1/Cyclin B1, GST-tag, no less than 500 nM.

As to `FC(F)Oc1cc(Nc2cnc3cnn([C@H](c4ccccn4)C(F)F)c3n2)n[nH]1` (single isomer, unassigned) [Example 150, (S)-1-(2,2-difluoro-1-(pyridin-2-yl)ethyl)-N-(5-(difluoromethoxy)-1H-pyrazol-3-yl)-1H-pyrazolo[3,4-b]pyrazin-6-amine or (R)-1-(2,2-difluoro-1-(pyridin-2-yl)ethyl)-N-(5-(difluoromethoxy)-1H-pyrazol-3-yl)-1H-pyrazolo[3,4-b]pyrazin-6-amine], the IC50 at CDK2/Cyclin E was 10 to 20 nM; on CDK1/Cyclin B1, GST-tag, no less than 500 nM.

As to `O=C1C[C@@H](Cn2ncc3ncc(Nc4cc(OC(F)F)[nH]n4)nc32)CN1` (single isomer, unassigned) [Example 21, (R)-4-((6-((5-(difluoromethoxy)-1H-pyrazol-3-yl)amino)-1H-pyrazolo[3,4-b]pyrazin-1-yl)methyl)pyrrolidin-2-one or (S)-4-((6-((5-(difluoromethoxy)-1H-pyrazol-3-yl)amino)-1H-pyrazolo[3,4-b]pyrazin-1-yl)methyl)pyrrolidin-2-one], the IC50 is 20 to 30 nM on CDK2/Cyclin E and no less than 500 nM on CDK1/Cyclin B1, GST-tag.

On to `CCC([C@@H](C)O)n1ncc2ncc(Nc3cc(OC(F)F)[nH]n3)nc21` (single isomer, unassigned) [Example 202], for which the IC50 on CDK2/Cyclin E is 30 to 100 nM; at CDK1/Cyclin B1, GST-tag it was no less than 500 nM.

Regarding `C[C@@H](C1COC1)n1ncc2ncc(Nc3cc(OC(F)F)[nH]n3)nc21` [Example 72, (S)-N-(5-(difluoromethoxy)-1H-pyrazol-3-yl)-1-(1-(oxetan-3-yl)ethyl)-1H-pyrazolo[3,4-b]pyrazin-6-amine], the IC50 was no more than 10 nM on CDK2/Cyclin E and no less than 500 nM on CDK1/Cyclin B1, GST-tag.

`COc1cc(Nc2cnc3cnn([C@@H](CF)C4CCOCC4)c3n2)n[nH]1` (single isomer, unassigned) [Example 194, (R)-1-(2-fluoro-1-(tetrahydro-2H-pyran-4-yl)ethyl)-N-(5-methoxy-1H-pyrazol-3-yl)-1H-pyrazolo[3,4-b]pyrazin-6-amine or (S)-1-(2-fluoro-1-(tetrahydro-2H-pyran-4-yl)ethyl)-N-(5-methoxy-1H-pyrazol-3-yl)-1H-pyrazolo[3,4-b]pyrazin-6-amine]: the IC50 at CDK2/Cyclin E was no more than 10 nM; at CDK1/Cyclin B1, GST-tag, 100 to 500 nM.

Consider `COc1cc(Nc2cnc3cnn(CC4(C)COC4)c3n2)n[nH]1` [Example 133, N-(5-methoxy-1H-pyrazol-3-yl)-1-((3-methyloxetan-3-yl)methyl)-1H-pyrazolo[3,4-b]pyrazin-6-amine], for which the IC50 at CDK2/Cyclin E is 20 to 30 nM; at CDK1/Cyclin B1, GST-tag, no less than 500 nM.

With `Fc1ncccc1Cn1ncc2ncc(Nc3cc(OC(F)F)[nH]n3)nc21` [Example 7, N-(5-(difluoromethoxy)-1H-pyrazol-3-yl)-1-((2-fluoropyridin-3-yl)methyl)-1H-pyrazolo[3,4-b]pyrazin-6-amine], the IC50 at CDK2/Cyclin E is no more than 10 nM; at CDK1/Cyclin B1, GST-tag, 100 to 500 nM.

Turning to `COc1cc(Nc2cnc3cnn(C[C@H]4CCCOC4)c3n2)n[nH]1` [Example 140, (R)-N-(5-methoxy-1H-pyrazol-3-yl)-1-((tetrahydro-2H-pyran-3-yl)methyl)-1H-pyrazolo[3,4-b]pyrazin-6-amine], the IC50 on CDK2/Cyclin E was 10 to 20 nM; on CDK1/Cyclin B1, GST-tag it was no less than 500 nM.

In the case of `C[C@H]([C@H]1CCOC1)n1ncc2ncc(Nc3cc(OC(F)F)[nH]n3)nc21` (single isomer, unassigned) [Example 10], the IC50 at CDK2/Cyclin E is no more than 10 nM; on CDK1/Cyclin B1, GST-tag, less than 100 nM.

`C[C@@H](c1ccccc1F)n1ncc2ncc(Nc3cc(OC(F)F)[nH]n3)nc21` [Example 46, (S)-N-(5-(difluoromethoxy)-1H-pyrazol-3-yl)-1-(1-(2-fluorophenyl)ethyl)-1H-pyrazolo[3,4-b]pyrazin-6-amine]: the IC50 on CDK2/Cyclin E was no more than 10 nM; at CDK1/Cyclin B1, GST-tag, no less than 500 nM.

Regarding `CC1(Cn2ncc3ncc(Nc4cc(OC(F)F)[nH]n4)nc32)CCOCC1` [Example 110, N-(5-(difluoromethoxy)-1H-pyrazol-3-yl)-1-((4-methyltetrahydro-2H-pyran-4-yl)methyl)-1H-pyrazolo[3,4-b]pyrazin-6-amine], the IC50 on CDK2/Cyclin E is no more than 10 nM; at CDK1/Cyclin B1, GST-tag, 100 to 500 nM.

Regarding `COc1cc(Nc2cnc3cnn(C[C@H]4CCOC4)c3n2)n[nH]1` [Example 70, (R)-N-(5-methoxy-1H-pyrazol-3-yl)-1-((tetrahydrofuran-3-yl)methyl)-1H-pyrazolo[3,4-b]pyrazin-6-amine], the IC50 is no more than 10 nM on CDK2/Cyclin E and 100 to 500 nM at CDK1/Cyclin B1, GST-tag.

As for `FC(F)Oc1cc(Nc2cnc3cnn(C[C@H]4CCCO4)c3n2)n[nH]1` [Example 113, (R)-N-(5-(difluoromethoxy)-1H-pyrazol-3-yl)-1-((tetrahydrofuran-2-yl)methyl)-1H-pyrazolo[3,4-b]pyrazin-6-amine], the IC50 at CDK2/Cyclin E was 30 to 100 nM; on CDK1/Cyclin B1, GST-tag it was no less than 500 nM.

For the compound `FC(F)Oc1cc(Nc2cnc3cnn(C[C@@H]4CCCCO4)c3n2)n[nH]1` [Example 103, (S)-N-(5-(difluoromethoxy)-1H-pyrazol-3-yl)-1-((tetrahydro-2H-pyran-2-yl)methyl)-1H-pyrazolo[3,4-b]pyrazin-6-amine], the IC50 is 20 to 30 nM on CDK2/Cyclin E and no less than 500 nM on CDK1/Cyclin B1, GST-tag.

For `C[C@@H](c1cncc(F)c1)n1ncc2ncc(Nc3cc(OC(F)F)[nH]n3)nc21` (single isomer, unassigned) [Example 154, (R)-N-(5-(difluoromethoxy)-1H-pyrazol-3-yl)-1-(1-(5-fluoropyridin-3-yl)ethyl)-1H-pyrazolo[3,4-b]pyrazin-6-amine or (S)-N-(5-(difluoromethoxy)-1H-pyrazol-3-yl)-1-(1-(5-fluoropyridin-3-yl)ethyl)-1H-pyrazolo[3,4-b]pyrazin-6-amine], the IC50 at CDK2/Cyclin E is 20 to 30 nM; at CDK1/Cyclin B1, GST-tag it was no less than 500 nM.

`COc1cc(Nc2cnc3cnn([C@@H](C)c4ccccn4)c3n2)n[nH]1` [Example 45, (S)-N-(5-methoxy-1H-pyrazol-3-yl)-1-(1-(pyridin-2-yl)ethyl)-1H-pyrazolo[3,4-b]pyrazin-6-amine]: the IC50 on CDK2/Cyclin E was no more than 10 nM; at CDK1/Cyclin B1, GST-tag, no less than 500 nM.

As for `FC(F)Oc1cc(Nc2cnc3cnn([C@H](C4CCOCC4)C4CC4)c3n2)n[nH]1` (single isomer, unassigned) [Example 158, (R)-1-(cyclopropyl(tetrahydro-2H-pyran-4-yl)methyl)-N-(5-(difluoromethoxy)-1H-pyrazol-3-yl)-1H-pyrazolo[3,4-b]pyrazin-6-amine or (S)-1-(cyclopropyl(tetrahydro-2H-pyran-4-yl)methyl)-N-(5-(difluoromethoxy)-1H-pyrazol-3-yl)-1H-pyrazolo[3,4-b]pyrazin-6-amine], the IC50 is 30 to 100 nM on CDK2/Cyclin E and no less than 500 nM at CDK1/Cyclin B1, GST-tag.

Turning to `Fc1ccc(Cn2ncc3ncc(Nc4cc(OC(F)F)[nH]n4)nc32)cn1` [Example 41, N-(5-(difluoromethoxy)-1H-pyrazol-3-yl)-1-((6-fluoropyridin-3-yl)methyl)-1H-pyrazolo[3,4-b]pyrazin-6-amine], the IC50 was no more than 10 nM on CDK2/Cyclin E and no less than 500 nM at CDK1/Cyclin B1, GST-tag.

Consider `C[C@@H](c1ccccc1)n1ncc2ncc(Nc3cc(OC(F)F)[nH]n3)nc21` [Example 93, (S)-N-(5-(difluoromethoxy)-1H-pyrazol-3-yl)-1-(1-phenylethyl)-1H-pyrazolo[3,4-b]pyrazin-6-amine], for which the IC50 at CDK2/Cyclin E was no more than 10 nM; at CDK1/Cyclin B1, GST-tag it was no less than 500 nM.

Consider `C[C@@H](CO)Cn1ncc2ncc(Nc3cc(OC(F)F)[nH]n3)nc21` [Example 198, (R)-3-(6-((5-(difluoromethoxy)-1H-pyrazol-3-yl)amino)-1H-pyrazolo[3,4-b]pyrazin-1-yl)-2-methylpropan-1-ol], for which the IC50 was 30 to 100 nM at CDK2/Cyclin E and no less than 500 nM at CDK1/Cyclin B1, GST-tag.
